Consider one compound from BindingDB's records for doi:10.1021/jm5008853 (University of Ferrara, 2014).

This assay in a line: Allosteric enhancer activity at human adenosine A1 receptor expressed in CHO cell membranes assessed as [3H]NECA affinity constant at 1 uM (Kd = 0.87 +/- 0.04 nM).

As for `CC(C)(C)Cc1c(C#Cc2ccccc2)sc(N)c1C(=O)c1ccc(Cl)cc1`, the Kd (in general, the free concentration of one partner at which half of the binding sites on the other are occupied at equilibrium, for simple one-to-one binding) came out at 0.46 nM.
